For orientation: EC50 means the concentration needed to bring the measured effect to its halfway point.

These results are taken from US20230127326A1, “C3-SUBSTITUTED 1H-PYRAZOLO[4,3-d]PYRIMIDINE COMPOUNDS AS TOLL-LIKE RECEPTOR 7 (TLR7) AGONISTS” (BRISTOL-MYERS SQUIBB COMPANY, priority 2020, published 2023).

For one assay, the target named is T1, human TLR7 (Homo sapiens, UniProt Q9NYK1).
T1 construct: host or cells: HEK-Blue TLR7 cells (engineered human embryonic kidney cells)
T1 sequence (Q9NYK1 27-1049): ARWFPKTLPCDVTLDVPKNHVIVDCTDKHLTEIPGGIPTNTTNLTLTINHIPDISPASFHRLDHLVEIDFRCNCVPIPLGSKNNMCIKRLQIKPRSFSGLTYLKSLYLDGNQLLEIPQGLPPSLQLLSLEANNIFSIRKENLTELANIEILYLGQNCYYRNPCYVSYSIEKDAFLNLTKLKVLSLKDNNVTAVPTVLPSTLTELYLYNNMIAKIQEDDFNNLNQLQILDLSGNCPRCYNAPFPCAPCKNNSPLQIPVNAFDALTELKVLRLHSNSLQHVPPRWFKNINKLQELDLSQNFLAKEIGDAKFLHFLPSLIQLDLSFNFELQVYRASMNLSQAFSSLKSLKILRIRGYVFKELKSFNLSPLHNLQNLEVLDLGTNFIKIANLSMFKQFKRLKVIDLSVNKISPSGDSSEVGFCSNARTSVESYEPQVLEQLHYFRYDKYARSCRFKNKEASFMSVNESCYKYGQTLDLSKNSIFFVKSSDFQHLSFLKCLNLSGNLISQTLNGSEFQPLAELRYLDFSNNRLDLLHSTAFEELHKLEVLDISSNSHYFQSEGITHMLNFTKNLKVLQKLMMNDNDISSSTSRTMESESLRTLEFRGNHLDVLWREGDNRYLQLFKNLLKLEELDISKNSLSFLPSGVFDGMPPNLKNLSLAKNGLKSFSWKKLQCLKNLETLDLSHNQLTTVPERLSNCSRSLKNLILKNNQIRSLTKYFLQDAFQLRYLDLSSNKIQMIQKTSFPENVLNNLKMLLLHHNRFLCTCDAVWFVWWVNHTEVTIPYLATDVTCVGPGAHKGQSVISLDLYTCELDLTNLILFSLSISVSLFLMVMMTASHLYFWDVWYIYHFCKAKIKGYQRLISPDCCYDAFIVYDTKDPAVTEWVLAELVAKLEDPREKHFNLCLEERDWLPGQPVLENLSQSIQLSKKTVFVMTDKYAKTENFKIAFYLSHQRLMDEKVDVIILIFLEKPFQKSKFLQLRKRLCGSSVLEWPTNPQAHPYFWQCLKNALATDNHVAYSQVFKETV
The assay is described as follows: Human TLR7 agonist activity reporter assay (HEK-Blue TLR7 cells, SEAP reporter). The note with it: 18 h treatment, average where assay was performed multiple times, read-out: hTLR7 Agonism EC50. Format: cell-based. As for the experimental part: This procedure describes a method for assaying human TLR7 (hTLR7) agonist activity of the compounds disclosed in this specification.
HEK-Blue™ TLR7 cells were added to each well of a 384-well tissue-culture plate (15,000 cells per well) and incubated 16-18 h at 37° C., 5% CO2. Compounds (100 nl) were dispensed into wells containing the HEK-Blue™ TLR cells and the treated cells were incubated at 37° C., 5% CO2. After 18 h treatment ten microliters of freshly-prepared Quanti-Blue™ reagent (Invivogen) was added to each well, incubated for 30 min (37° C., 5% CO2) and SEAP levels measured using an Envision plate reader (OD=620 nm). The half maximal effective concentration values (EC50; compound concentration which induced a response halfway between the assay baseline and maximum) were calculated.
On the technique in general: A reporter such as luciferase makes a cellular process visible.

A further assay deals with CD69. The assay is described as follows: Induction of CD69 in human whole blood. Format: cell-based. The following applies: 17 hrs at 37° C., y-axis 100% set to 1 uM of resiquimod, average where assay was performed multiple times, read-out: hWB CD69 EC50. As for the experimental part: The induction of Type I interferon (IFN) MX-1 genes and the B-cell activation marker CD69 are downstream events that occur upon activation of the TLR7 pathway. The following is a human whole blood assay that measures their induction in response to a TLR7 agonist.
Heparinized human whole blood was harvested from human subjects and treated with test TLR7 agonist compounds at 1 mM. The blood was diluted with RPMI 1640 media and Echo was used to predot 10 nL per well giving a final concentration of 1 uM (10 nL in 10 uL of blood). After mixing on a shaker for 30 sec, the plates were covered and placed in a 37° C. chamber for o/n=17 hrs. Fixing/lysis buffer was prepared (5×->1× in H2O, warm at 37° C.; Cat #BD 558049) and kept the perm buffer (on ice) for later use.
For surface markers staining (CD69): prepared surface Abs: 0.045 ul hCD14-FITC (ThermoFisher Cat #MHCD1401)+0.6 ul hCD19-ef450 (ThermoFisher Cat #48-0198-42)+1.5 ul hCD69-PE (cat #BD555531)+0.855 ul FACS buffer. Added 3 ul/well, spin 1000 rpm for 1 min and mixed on shaker for 30 sec, put on ice for 30 mins. Stop stimulation after 30 minutes with 70 uL of prewarmed 1× fix/lysis buffer and use Feliex mate to resuspend (15 times, change tips for each plate) and incubate at 37 C for 10 minutes.
Centrifuge at 2000 rpm for 5 minutes aspirate with HCS plate washer, mix on shaker for 30 sec and then wash with 70 uL in dPBS and pelleted 2×s (2000 rpm for 5 min) and 50 ul wash in FACS buffer pelleted 1×s (2000 rpm for 5 min). Mix on shaker for 30 sec. For Intracellular markers staining (MX-1): Add 50 ul of BD Perm buffer III and mix on shaker for 30 sec. Incubate on ice for 30 minutes (in the dark). Wash with 50 uL of FACS buffer 2× (spin @2300 rpm×5 min after perm) followed by mixing on shaker for 30 sec. Resuspended in 20 ul of FACS buffer containing MX1 antibody ( )(4812)-Alexa 647: Novus Biologicals #NBP2-43704AF647) 20 ul FACS bf+0.8 ul hIgG+0.04 ul MX-1. Spin 1000 rpm for 1 min, mix on shaker for 30 se and the samples were incubated at RT in the dark for 45 minutes followed by washing 2×FACS buffer (spin @2300 rpm×5 min after perm). Resuspend 20 ul (35 uL total per well) of FACS buffer and cover with foil and place in 4° C. to read the following day. Plates were read on iQuePlus. The results were loaded into toolset and […] curves are generated in curve master. The y-axis 100% is set to 1 uM of resiquimod.

As to `CCCCNc1nc(N)nc2c(C)nn(Cc3ncc(CN4CCN(CCO)CC4)cc3OC)c12` [Compound 131, 2-{4-[(6-{[5-amino-7-(butyl-amino)-3-methyl-1H-pyrazolo[4,3-d]pyrimidin-1-yl]methyl}-5-methoxy-pyridin-3-yl)methyl]piperazin-1-yl}ethan-1-ol], the half-maximal effective concentration (EC50) at human TLR7 came out at 0.224 µM; with CD69 it was 0.0414 µM.

For `CCC[C@@H](CCO)Nc1nc(N)nc2c(F)nn(Cc3ccc(CN[C@@H]4COC[C@H]4O)cc3OC)c12` [Compound 132, (3S,4R)-4-[({4-[(5-amino-3-fluoro-7-{[(3S)-1-hydroxy-hexan-3-yl]amino}-1H-pyrazolo[4,3-d]pyrimidin-1-yl)-methyl]-3-methoxyphenyl}-methyl)amino]oxolan-3-ol], the concentration for a half-maximal effect (EC50) came to 0.0404 µM at human TLR7 and 0.0093 µM in the assay with CD69.

`CCC[C@@H](CCO)Nc1nc(N)nc2c(F)nn(Cc3ccc(CN[C@H]4COC[C@@H]4O)cc3OC)c12` [Compound 133, (3R,4S)-4-[({4-[(5-amino-3-fluoro-7-{[(3S)-1-hydroxy-hexan-3-yl]amino}-1H-pyrazolo[4,3-d]pyrimidin-1-yl)-methyl]-3-methoxyphenyl}-methyl)amino]oxolan-3-ol]: the 50% effective concentration (EC50) on human TLR7 came out at 0.0479 µM; with CD69, 0.0126 µM.
